For 25 molecules, IC50 results are on record in patent US10576062B2, “Carbamoyloxymethyl triazole cyclohexyl acids as LPA antagonists” (Bristol-Myers Squibb Company, priority 2016, dated 2020).

What is called IC50 is the point on the concentration scale where inhibition reaches its midpoint.

SMILES strings stand for the structures.

The target in this assay is T1, human LPA1 (Homo sapiens, UniProt Q92633).
T1 construct: expressed in transfected cells; host or cells: Chinese hamster ovary (CHO) cells
T1 sequence (Q92633 whole entry): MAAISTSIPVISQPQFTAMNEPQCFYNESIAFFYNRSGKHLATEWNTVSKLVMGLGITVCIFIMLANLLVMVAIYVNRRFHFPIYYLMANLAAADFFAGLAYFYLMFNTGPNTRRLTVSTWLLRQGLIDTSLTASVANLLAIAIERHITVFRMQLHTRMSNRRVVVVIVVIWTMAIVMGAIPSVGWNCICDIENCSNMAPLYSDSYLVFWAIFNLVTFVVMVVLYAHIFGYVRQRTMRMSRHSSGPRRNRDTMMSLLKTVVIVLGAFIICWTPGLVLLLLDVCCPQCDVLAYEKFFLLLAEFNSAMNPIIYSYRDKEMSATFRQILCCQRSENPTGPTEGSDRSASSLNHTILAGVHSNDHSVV
The assay can be described thus: LPA1 functional antagonist assay (LPA-induced calcium flux). The class given is cell-based. The conditions noted are these: CHO cells overexpressing human LPA1; inhibition of calcium flux induced by 10 nM LPA; read-out: hLPA1 IC50. The procedure, abridged:
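CHO cells overexpressing human LPA1, loaded with calcium dye 30 min at 37° C, were preincubated 20 min at room temperature with compound (0.08 nM–5 μM, 0.5% DMSO) in HBSS/20 mM HEPES/0.1% fatty acid-free BSA.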
(In general: A change in cytosolic calcium serves as a functional read-out for many receptors and channels.)
For the molecule `Cc1nc(-c2nnn(C)c2CCOC(=O)N2CCCC2)ccc1O[C@H]1CCC[C@H](C(=O)O)C1` [Example 246, (2S,3S)-3-((2-Methyl-6-(1-methyl-5-(2-((pyrrolidine-1-carbonyl)oxy)-ethyl)-1H-1,2,3-triazol-4-yl)pyridin-3-yl)oxy)cyclohexane-1-carboxylic acid], the IC50 turned out to be 210 nM.

As to `Cc1nc(-c2nnn(C)c2CCOC(=O)N(C)C2CCC2)ccc1O[C@H]1CCC[C@H](C(=O)O)C1` [Example 247, (1S,3S)-3-((6-(5-(2-((Cyclobutyl(methyl)carbamoyl)oxy)ethyl)-1-methyl-1H-1,2,3-triazol-4-yl)-2-methylpyridin-3-yl)oxy)cyclo-hexane-1-carboxylic acid], the IC50 is 41 nM.

For `Cc1nc(-c2nnn(C)c2CCOC(=O)NCC2CCC2)ccc1O[C@H]1CCC[C@H](C(=O)O)C1` [Example 248, (1S,3S)-3-((6-(5-(2-(((Cyclobutyl-methyl)carbamoyl)oxy)ethyl)-1-methyl-1H-1,2,3-triazol-4-yl)-2-methylpyridin-3-yl)oxy)cyclohexane-1-carboxylic acid], the half-maximal inhibitory concentration (IC50) came out at 144 nM.

For `Cc1nc(-c2nnn(C)c2CCCOC(=O)N(C)Cc2ccccc2)ccc1O[C@H]1CCC[C@H](C(=O)O)C1` [Example 249, (1S,3S)-3-((6-(5-(3-((Benzyl(methyl)carbamoyl)oxy)propyl)-1-methyl-1H-1,2,3-triazol-4-yl)-2-methylpyridin-3-yl)oxy)cyclohexane-1-carboxylic Acid], the IC50 turned out to be 122 nM.

For `CCCOCCN(C)C(=O)OCc1c(-c2ccc(O[C@H]3CCC[C@H](C(=O)O)C3)c(C)n2)nnn1C` [Example 250, (1S,3S)-3-((2-methyl-6-(1-methyl-5-(((methyl(2-propoxyethyl)carbamoyl)oxy)methyl)-1H-1,2,3-triazol-4-yl)pyridin-3-yl)oxy)cyclohexane-1-carboxylic acid], the IC50 was 314 nM.

Turning to `C[C@@H]1C[C@H]1CN(C)C(=O)OCc1c(-c2ccc(O[C@H]3CCC[C@H](C(=O)O)C3)cn2)nnn1C` [Example 251, (1S,3S)-3-((6-(1-methyl-5-(((methyl(((1R,2R)-2-methylcyclopropyl)methyl)carbamoyl)oxy)methyl)-1H-1,2,3-triazol-4-yl)pyridin-3-yl)oxy)cyclohexane-1-carboxylic acid], the IC50 is 27 nM.

On to `C[C@H]1C[C@@H]1CN(C)C(=O)OCc1c(-c2ccc(O[C@H]3CCC[C@H](C(=O)O)C3)cn2)nnn1C` [Example 252, (1S,3S)-3-((6-(1-methyl-5-(((methyl(((1S,2S)-2-methylcyclopropyl)methyl)carbamoyl)oxy)methyl)-1H-1,2,3-triazol-4-yl)pyridin-3-yl)oxy)cyclohexane-1-carboxylic acid], for which the IC50 stood at 29 nM.

As for `Cc1nc(-c2nnn(C)c2COC(=O)N(C)CC(C)(C)F)ccc1O[C@H]1CCC[C@H](C(=O)O)C1` [Example 253, (1S,3S)-3-((6-(5-((((2-fluoro-2-methylpropyl)(methyl)carbamoyl)oxy)methyl)-1-methyl-1H-1,2,3-triazol-4-yl)-2-methylpyridin-3-yl)oxy)cyclohexane-1-carboxylic acid], the IC50 stood at 134 nM.

Take `Cc1nc(-c2nnn(C)c2COC(=O)N(C)CCCC(C)F)ccc1O[C@H]1CCC[C@H](C(=O)O)C1` (stereo partly drawn) [Example 256, (1S,3S)-3-((6-(5-((((4-fluoropentyl)(methyl)carbamoyl)oxy)methyl)-1-methyl-1H-1,2,3-triazol-4-yl)-2-methylpyridin-3-yl)oxy)cyclohexane-1-carboxylic acid]: the IC50 was 17 nM.

Consider `Cc1nc(-c2nnn(C)c2COC(=O)N(C)C[C@@H]2C[C@H]2C)ccc1O[C@H]1CCC[C@H](C(=O)O)C1` [Example 257, (1S,3S)-3-((2-methyl-6-(1-methyl-5-(((methyl(((1R,2R)-2-methylcyclopropyl)methyl)carbamoyl)oxy)methyl)-1H-1,2,3-triazol-4-yl)pyridin-3-yl)oxy)cyclohexane-1-carboxylic Acid], for which the IC50 was 18 nM.

As to `Cc1nc(-c2nnn(C)c2COC(=O)N(C)CC(C)(F)F)ccc1O[C@H]1CCC[C@H](C(=O)O)C1` [Example 259, (1S,3 S)-3-((6-(5-((((2,2-difluoropropyl)(methyl)carbamoyl)oxy)methyl)-1-methyl-1H-1,2,3-triazol-4-yl)-2-methylpyridin-3-yl)oxy)cyclohexane-1-carboxylic Acid], the IC50 was found to be 134 nM.

Take `Cc1nc(-c2nnn(C)c2COC(=O)N(C)CCC(C)F)ccc1O[C@H]1CCC[C@H](C(=O)O)C1` (stereo partly drawn) [Example 260, (1S,3 S)-3-((6-(5-((((3-fluorobutyl)(methyl)carbamoyl)oxy)methyl)-1-methyl-1H-1,2,3-triazol-4-yl)-2-methylpyridin-3-yl)oxy)cyclohexane-1-carboxylic Acid]: the concentration for half-maximal inhibition (IC50) was 50 nM.

For `Cc1nc(-c2nnn(C)c2COC(=O)N(C)CC(C)F)ccc1O[C@H]1CCC[C@H](C(=O)O)C1` (stereo partly drawn) [Example 261, (1S,3S)-3-((6-(5-((((2-fluoropropyl)(methyl)carbamoyl)oxy)methyl)-1-methyl-1H-1,2,3-triazol-4-yl)-2-methylpyridin-3-yl)oxy)cyclohexane-1-carboxylic acid], the IC50 came to 145 nM.

Turning to `Cc1nc(-c2nnn(C)c2COC(=O)N(C)CC2CC2C)ccc1O[C@H]1CCC[C@H](C(=O)O)C1` (stereo partly drawn) [Example 262, (1S,3S)-3-((2-methyl-6-(1-methyl-5-(((methyl((2-methylcyclopropyl)methyl)carbamoyl)oxy)methyl)-1H-1,2,3-triazol-4-yl)pyridin-3-yl)oxy)cyclohexane-1-carboxylic acid], the 50% inhibitory concentration (IC50) is 29 nM.

Take `Cc1nc(-c2nnn(C)c2COC(=O)N(C)CC2(C)CC2)ccc1O[C@H]1CCC[C@H](C(=O)O)C1` [Example 263, (1S,3S)-3-((2-methyl-6-(1-methyl-5-(((methyl((1-methylcyclopropyl)methyl)carbamoyl)oxy)methyl)-1H-1,2,3-triazol-4-yl)pyridin-3-yl)oxy)cyclohexane-1-carboxylic acid]: the IC50 was 76 nM.

As for `Cc1nc(-c2nnn(C)c2COC(=O)N(C)CC(C)(C)C)ccc1O[C@H]1CCC[C@H](C(=O)O)C1` [Example 264, (1S,3S)-3-((2-methyl-6-(1-methyl-5-(((methyl(neopentyl)carbamoyl)oxy)methyl)-1H-1,2,3-triazol-4-yl)pyridin-3-yl)oxy)cyclohexane-1-carboxylic acid], the IC50 is 76 nM.

Turning to `CN(CC1CCC1)C(=O)OCc1c(-c2ccc(O[C@H]3CCC[C@H](C(=O)O)C3)c(CO)n2)nnn1C` [Example 265, (1S,3 S)-3-((6-(5-((((cyclobutylmethyl)(methyl)carbamoyl)oxy)methyl)-1-methyl-1H-1,2,3-triazol-4-yl)-2-(hydroxymethyl)pyridin-3-yl)oxy)cyclohexane-1-carboxylic Acid], the IC50 is 68 nM.

As for `CN(CC1CCC1)C(=O)OCc1c(-c2ccc(O[C@H]3CCC[C@H](C(=O)O)C3)c(CF)n2)nnn1C` [Example 266, (1S,3 S)-3-((6-(5-((((cyclobutylmethyl)(methyl)carbamoyl)oxy)methyl)-1-methyl-1H-1,2,3-triazol-4-yl)-2-(fluoromethyl)pyridin-3-yl)oxy)cyclohexane-1-carboxylic Acid], the IC50 was 27 nM.

In the case of `COCc1nc(-c2nnn(C)c2COC(=O)N(C)CC2CCC2)ccc1O[C@H]1CCC[C@H](C(=O)O)C1` [Example 268, (1S,3 S)-3-((6-(5-((((cyclobutylmethyl)(methyl)carbamoyl)oxy)methyl)-1-methyl-1H-1,2,3-triazol-4-yl)-2-(methoxymethyl)pyridin-3-yl)oxy)cyclohexane-1-carboxylic Acid], the IC50 turned out to be 103 nM.

With `CN(CC1CCC1)C(=O)OCc1c(-c2ccc(O[C@H]3CCC[C@H](C(=O)O)C3)c(C(F)(F)F)n2)nnn1C` [Example 269, (1S,3 S)-3-((6-(5-((((cyclobutylmethyl)(methyl)carbamoyl)oxy)methyl)-1-methyl-1H-1,2,3-triazol-4-yl)-2-(trifluoromethyl)pyridin-3-yl)oxy)cyclohexane-1-carboxylic Acid], the IC50 is 10 nM.

Take `CCCN(C)C(=O)OCc1c(-c2ccc(O[C@H]3CCC[C@H](C(=O)O)C3)c(C#N)n2)nnn1C` [Example 270, (1S,3S)-3-((2-cyano-6-(1-methyl-5-(((methyl(propyl)carbamoyl)oxy)methyl)-1H-1,2,3-triazol-4-yl)pyridin-3-yl)oxy)cyclohexane-1-carboxylic acid]: the 50% inhibitory concentration (IC50) came out at 11 nM.

As for `CN(CC1CCC1)C(=O)OCc1c(-c2ccc(O[C@H]3CCC[C@H](C(=O)O)C3)c(C(C)(C)O)n2)nnn1C` [Example 271, (1S,3 S)-3-((6-(5-((((cyclobutylmethyl)(methyl)carbamoyl)oxy)methyl)-1-methyl-1H-1,2,3-triazol-4-yl)-2-(2-hydroxypropan-2-yl)pyridin-3-yl)oxy)cyclohexane-1-carboxylic Acid], the IC50 is 225 nM.

For `CCCN(C)C(=O)OCc1c(-c2ccc(O[C@H]3CCC[C@H](C(=O)O)C3)c(OC)n2)nnn1C` [Example 272, (1S,3 S)-3-((2-Methoxy-6-(1-methyl-5-(((methyl(propyl)carbamoyl)oxy)methyl)-1H-1,2,3-triazol-4-yl)pyridin-3-yl)oxy)cyclohexane-1-carboxylic Acid], the IC50 is 4 nM.

Turning to `CN(CC1CC1)C(=O)OCc1c(-c2ccc(O[C@H]3CCC[C@H](C(=O)O)C3)c(C(F)(F)F)n2)nnn1C` [Example 273, (1S,3S)-3-((6-(5-((((cyclopropylmethyl)(methyl)carbamoyl)oxy)methyl)-1-methyl-1H-1,2,3-triazol-4-yl)-2-(trifluoromethyl)pyridin-3-yl)oxy)cyclohexane-1-carboxylic acid], the IC50 was determined as 7 nM.

Consider `CCCN(C)C(=O)OCc1c(-c2ccc(O[C@H]3CCC[C@H](C(=O)O)C3)c(C(F)(F)F)n2)nnn1C` [Example 274, (1S,3S)-3-((6-(1-methyl-5-(((methyl(propyl)carbamoyl)oxy)methyl)-1H-1,2,3-triazol-4-yl)-2-(trifluoromethyl)pyridin-3-yl)oxy)cyclohexane-1-carboxylic acid], for which the IC50 was 28 nM.
